Experimental data as given in US20170253607A1, “LONG-ACTING HIV PROTEASE INHIBITOR” (Shionogi & Co., Ltd., priority 2014, published 2017).
pIC50: −log10 of the molar value.

Legend:
[1] = Evaluation of total body clearance (CLtot), intravenous administration; assay type: in vivo, Sprague-Dawley (SD); conditions: rat (SD), intravenous administration 0.5-10 mg/kg; CLtot = dose/AUC
Summary of the method: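 Plasma levels quantified by LC/MS/MS after intravenous tail-vein dosing (0.5-10 mg/kg, compound-dependent; n=2-3). AUC from pharmacokinetic analysis; total clearance calculated as dose/AUC.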

HIV-1 PR = HIV-1 PR (Human immunodeficiency virus type 1 group M subtype B, UniProt P04585); assay: HIV-protease inhibitory activity assay (FRET peptide substrate); assay type: biochemical; conditions: Test Example 1
Summary of the method: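 HIV-1 PR (0.83 ng) preincubated with compounds 20 min at room temperature in 0.1 mol/L NaAc, 0.5 mol/L NaCl, 1 mmol/L EDTA, 1 mmol/L DTT, 0.05% Tween 20, pH 4.8. Cleavage of HiLyte Fluor 488/QXL 520 FRET peptide (2 μmol/L) read after 60 minutes at 485/535 nm; IC50 from four-parameter logistic fit.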

[2] = Protein binding test (equilibrium dialysis, unbound ratio fu in serum); assay type: in vitro ADME; conditions: rat serum, equilibrium dialysis 24 hours, 37° C., 2 μg/mL
Experimental: Assay condition: Evaluation method; Equilibrium dialysis method, Reaction time; 24 hours, Reaction temperature; 37° C., Assay concentration; 2 μg/mL A solution of the compound was added to each serum and mixed to prepare the serum samples with above concentration. The serum sample was put into one side of an equilibrium dialysis apparatus with dialysis membrane and phosphate buffered saline (PBS) was also put to another side of the apparatus. The apparatus was incubated at 37° C. for 24 hours. After incubation, the serum and PBS samples were collected and the compound concentrations in both samples were measured by LC/MS/MS. Fu was calculated by dividing the concentration in PBS by the concentration in the serum.

| Compound | rat_CLt [1] [mL/min/kg] | pIC50 (HIV-1 PR) | rat_fu [2] [%] |
| --- | --- | --- | --- |
| COc1ccc(S(=O)(=O)N(CC(C)C)CC(O)C(Cc2ccc(N(C)Cc3cc(C(F)(F)F)ccc3-n3nc4c(c3C(=O)O)CC(C)(C)CC4)cc2)NC(=O)OC2COC3(C)OCCC23)cc1 (stereo not drawn) [Compound I-379] | 0.173 | 8.35 | <0.1 |
| COc1ccc(S(=O)(=O)N(CC(C)C)CC(O)C(Cc2ccc(NCCc3ccccc3-c3sc4c(c3C(=O)O)CC(C)(C)CC4)cc2)NC(=O)OC2COC3(C)OCCC23)cc1 (stereo not drawn) [Compound I-262] | 0.343 | 8.40 | <0.1 |
| COc1ccc(S(=O)(=O)N(CC2CCCC2)CC(O)C(Cc2ccc(OCc3cc(C(F)(F)F)ccc3-c3nc4n(c3C(=O)O)CCCC4)cc2)NC(=O)OC2COC3(C)OCCC23)cc1 (stereo not drawn) [Compound I-205] | 1.68 | 8.69 | <0.1 |
| COc1ccc(S(=O)(=O)N(CC(C)C)CC(O)C(Cc2ccc(N3CC(Oc4ccccc4-c4sc5c(c4C(=O)O)CC(C)(C)CC5)C3)cc2)NC(=O)OC2COC3(C)OCCC23)cc1 (stereo not drawn) [Compound I-357] | 1.55 | 8.36 | <0.1 |
| COc1ccc(S(=O)(=O)N(CC2CCCC2)CC(O)C(Cc2ccc(OCc3ccccc3-n3nc4c(c3C(=O)O)CC(C)(C)CC4)cc2)NC(=O)OC2COC3(C)OCCC23)cc1 (stereo not drawn) [Compound I-139] | 0.286 | 9.11 | <0.1 |
| COc1ccc(S(=O)(=O)N(CC(C)C)CC(O)C(Cc2ccc(N(C)CCCc3ccccc3-c3sc4c(c3C(=O)O)CC(C)(C)CC4)cc2)NC(=O)OC2COC3(C)OCCC23)cc1 (stereo not drawn) [Compound I-240] | 4.5 | 8.69 | <0.1 |
| COc1ccc(S(=O)(=O)N(CC(C)C)CC(O)C(Cc2ccc(CCc3sc4c(c3C(=O)O)CC(C)(C)CC4(C)C)cc2)NC(=O)OC2COC3(C)OCCC23)cc1 (stereo not drawn) [Compound I-105] | 2.29 | 8.62 | <0.1 |
| COc1ccc(S(=O)(=O)N(CC(C)C)CC(O)C(Cc2ccc(N(C)CC3=C(c4sc5c(c4C(=O)O)CC(C)(C)CC5)CCC3)cc2)NC(=O)OC2COC3(C)OCCC23)cc1 (stereo not drawn) [Compound I-347] | 5.18 | 8.36 | <0.1 |
| COc1ccc(S(=O)(=O)N(CC(C)C)CC(O)C(Cc2ccc(OCc3cc(C#N)ccc3-c3sc4c(c3C(=O)O)CC(C)(C)CC4)cc2)NC(=O)OC2COC3(C)OCCC23)cc1 (stereo not drawn) [Compound I-79] | 3.15 | 8.76 | <0.1 |
| COc1ccc(S(=O)(=O)N(CC(C)C)CC(O)C(Cc2ccc(OCc3ccccc3-c3sc4c(c3C(=O)O)CC(C)(C)CC4(C)C)cc2)NC(=O)OC2COC3(C)OCCC23)cc1 (stereo not drawn) [Compound I-113] | 1.18 | 8.74 | <0.1 |
| COc1ccc(S(=O)(=O)N(CC(C)C)C[C@@H](O)[C@H](Cc2ccc(O[C@@H]3CCN(c4ccccc4-c4sc5c(c4C(=O)O)CC(C)(C)CC5)C3)cc2)NC(=O)O[C@H]2CO[C@@]3(C)OCC[C@@H]23)cc1 [Compound I-6] | 1.22 | 8.87 | <0.1 |
| CC(C)CN(CC(O)C(Cc1ccc(OCc2ccccc2-c2sc3c(c2C(=O)O)CC(C)(C)CC3(C)C)cc1)NC(=O)OC1COC2(C)OCCC12)S(=O)(=O)c1ccc2ncsc2c1 (stereo not drawn) [Compound I-119] | 2.29 | 8.91 | <0.1 |
| COc1ccc(S(=O)(=O)N(CC(C)C)CC(O)C(Cc2ccc(N(C)C3Cc4cccc(-c5sc6c(c5C(=O)O)CC(C)(C)CC6)c4C3)cc2)NC(=O)OC2COC3(C)OCCC23)cc1 (stereo not drawn) [Compound I-405] | 3.27 | 8.62 | <0.1 |
| COc1ccc(S(=O)(=O)N(CC(C)C)C[C@@H](O)[C@H](Cc2ccc(OCc3ccccc3C(=O)Nc3sc4c(c3C(=O)O)CC(C)(C)CC4)cc2)NC(=O)O[C@H]2CO[C@@]3(C)OCC[C@@H]23)cc1 [Compound I-268] | 0.0553 | 8.35 | <0.1 |
| COc1ccc(S(=O)(=O)N(CC(C)C)CC(O)C(Cc2ccc(CN(C)c3ccc(-c4sc5c(c4C(=O)O)CC(C)(C)CC5)c(C)c3)cc2)NC(=O)OC2COC3(C)OCCC23)cc1 (stereo not drawn) [Compound I-376] | 0.485 | 8.01 | <0.1 |
| COc1ccc(S(=O)(=O)N(CC(C)C)CC(O)C(Cc2ccc(NCc3cccc(-c4sc5c(c4C(=O)O)CC(C)(C)CC5)c3C)cc2)NC(=O)OC2COC3(C)OCCC23)cc1 (stereo not drawn) [Compound I-292] | 0.166 | 8.57 | <0.1 |
